In ChEMBL document CHEMBL2150926 (J Med Chem, 2011):
≈ marks a conversion by molar mass, not a printed value. Each block holds one molecule with its values, some of them ahead of it.

Columns and labels:
[1] = Immunosuppressive activity in mouse lymphocytes assessed as alloantigen-induced T cell proliferation by mixed lymphocyte reaction assay; assay type: functional, cell-based
[2] = biological target: T1, Protein kinase C epsilon type (Homo sapiens, UniProt Q02156); test: Inhibition of PKCepsilon by scintillation proximity assay
T1 sequence (Q02156 whole entry): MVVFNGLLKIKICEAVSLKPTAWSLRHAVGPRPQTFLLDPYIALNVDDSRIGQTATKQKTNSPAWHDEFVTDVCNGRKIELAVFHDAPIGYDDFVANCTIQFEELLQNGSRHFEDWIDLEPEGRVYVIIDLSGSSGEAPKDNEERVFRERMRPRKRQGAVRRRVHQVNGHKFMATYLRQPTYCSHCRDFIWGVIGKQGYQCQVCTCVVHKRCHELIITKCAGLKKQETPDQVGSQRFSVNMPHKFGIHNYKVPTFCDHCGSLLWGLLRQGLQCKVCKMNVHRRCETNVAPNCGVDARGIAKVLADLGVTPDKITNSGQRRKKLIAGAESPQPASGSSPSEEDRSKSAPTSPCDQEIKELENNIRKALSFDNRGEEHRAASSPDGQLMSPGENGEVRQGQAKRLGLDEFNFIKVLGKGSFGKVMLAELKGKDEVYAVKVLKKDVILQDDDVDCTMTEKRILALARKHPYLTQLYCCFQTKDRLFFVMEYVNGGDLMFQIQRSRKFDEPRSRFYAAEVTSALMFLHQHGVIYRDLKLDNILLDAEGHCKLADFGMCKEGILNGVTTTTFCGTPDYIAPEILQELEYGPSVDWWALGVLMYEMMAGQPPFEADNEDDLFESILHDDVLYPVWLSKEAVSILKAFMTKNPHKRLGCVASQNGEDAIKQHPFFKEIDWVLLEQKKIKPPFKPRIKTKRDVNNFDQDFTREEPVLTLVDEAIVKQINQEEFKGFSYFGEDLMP

[3] = biological target: Protein kinase C alpha type (Homo sapiens, UniProt P17252); test: Inhibition of PKCalpha by scintillation proximity assay
[4] = biological target: Protein kinase C beta type (Homo sapiens, UniProt P05771); test: Inhibition of PKCbeta-1 by scintillation proximity assay
[5] = biological target: Protein kinase C theta type (Homo sapiens, UniProt Q04759); test: Inhibition of PKCtheta by scintillation proximity assay
[6] = biological target: Protein kinase C eta type (Homo sapiens, UniProt P24723); test: Inhibition of PKCeta by scintillation proximity assay
[7] = biological target: Protein kinase C delta type (Homo sapiens, UniProt Q05655); test: Inhibition of PKCdelta by scintillation proximity assay
Jurkat = test: Inhibition of human Jurkat cell activation assessed as TCR/CD28 stimulated inhibition of IL-2 secretion; assay type: functional, cell-based
[8] = Immunosuppressive activity in human lymphocytes assessed as alloantigen-induced T cell proliferation by mixed lymphocyte reaction assay; assay type: functional, cell-based
Rattus norvegicus [9] = test: AUC (0 to 24 hrs) in Wistar rat at 30 mg/kg, po administered as single dose; assay type: ADME, organism-based, Plasma; parameters: time < 24 hr, dose 30 mg/kg, route oral; conditions: in vivo
[10] = Apparent permeability in human Caco2 cells; assay type: ADME, cell-based; conditions: Caco-2
[11] = Total plasma clearance in cynomolgus monkey at 5 mg/kg, iv; assay type: ADME, organism-based, Macaca fascicularis; parameters: dose 5 mg/kg, route intravenous
[12] = Oral bioavailability in Balb/c mouse at 30 mg/kg; assay type: ADME, organism-based; conditions: in vivo
[13] = Elimination half life in Balb/c mouse at 5 mg/kg, iv; assay type: ADME, organism-based; parameters: dose 5 mg/kg, route intravenous; conditions: in vivo, read-out: beta t1/2 (converted)
[14] = Intrinsic clearance in Balb/c mouse liver microsomes at 30 mg/kg, po; assay type: ADME, Microsome; parameters: dose 30 mg/kg, route oral; conditions: read-out: CLH
Cynomolgus monkey [15] = test: Dose normalized AUC (0 to infinity) in cynomolgus monkey at 5 mg/kg, iv; assay type: ADME, organism-based, Macaca fascicularis; parameters: dose 5 mg/kg, route intravenous; conditions: in vivo
[16] = Fraction unbound in OFA rat plasma at 20 mg/kg, po; assay type: ADME, organism-based; parameters: dose 20 mg/kg, route oral
[17] = Solubility of the compound in simulated gastric fluid at pH 2.0; assay type: physicochemical
[18] = Fraction unbound in cynomolgus monkey plasma at 20 mg/kg, po; assay type: ADME, organism-based, Macaca fascicularis; parameters: dose 20 mg/kg, route oral
[19] = Intrinsic clearance in OFA rat liver microsomes at 20 mg/kg, po; assay type: ADME, Microsome; parameters: dose 20 mg/kg, route oral; conditions: read-out: CLH
[20] = Intrinsic clearance in cynomolgus monkey liver microsomes at 20 mg/kg, po; assay type: ADME, Macaca fascicularis, Microsome; parameters: dose 20 mg/kg, route oral; conditions: read-out: CLH
[21] = Octanol-water partition coefficient, log P of the compound; assay type: physicochemical
[22] = Tmax in Balb/c mouse at 30 mg/kg, po; assay type: ADME, organism-based; parameters: dose 30 mg/kg, route oral; conditions: in vivo
[23] = Oral bioavailability in cynomolgus monkey at 20 mg/kg; assay type: ADME, organism-based, Macaca fascicularis; conditions: in vivo
[24] = Lipophilicity, log D of the compound at pH 6.8; assay type: physicochemical; conditions: buffer
[25] = AUC (0 to 24 hrs) in Wistar rat mesenteric lymph node at 30 mg/kg, po administered as single dose; assay type: ADME, organism-based; parameters: time < 24 hr, dose 30 mg/kg, route oral; conditions: in vivo
[26] = Volume of distribution at steady state in Balb/c mouse at 5 mg/kg, iv; assay type: ADME, organism-based; parameters: dose 5 mg/kg, route intravenous; conditions: in vivo, read-out: Vdss
Mus musculus [27] = test: Dose normalized AUC (0 to infinity) in Balb/c mouse at 30 mg/kg, po; assay type: ADME, organism-based; parameters: dose 30 mg/kg, route oral; conditions: in vivo
Cytochrome P450 3A4 = Cytochrome P450 3A4 (Homo sapiens, UniProt P08684); test: Inhibition of CYP3A4-catalyzed midazolam 1'-hydroxylation in human liver microsomes; assay type: ADME, Microsome
Spleen = test: AUC (0 to 24 hrs) in Wistar rat spleen at 30 mg/kg, po administered as single dose; assay type: ADME, organism-based; parameters: time < 24 hr, dose 30 mg/kg, route oral; conditions: in vivo
Cynomolgus monkey [28] = test: Dose normalized AUC (0 to infinity) in cynomolgus monkey at 20 mg/kg, po; assay type: ADME, organism-based, Macaca fascicularis; parameters: dose 20 mg/kg, route oral; conditions: in vivo
Thymus = test: AUC (0 to 24 hrs) in Wistar rat thymus at 30 mg/kg, po administered as single dose; assay type: ADME, organism-based; parameters: time < 24 hr, dose 30 mg/kg, route oral; conditions: in vivo
Mus musculus [29] = test: Drug metabolism in po dosed Balb/c mouse assessed as 3-(1H-Indol-3-yl)-4-(2-piperazin-1-yl-quinazolin-4-yl)pyrrole-2,5-dione level relative to parent compound; assay type: ADME, organism-based; conditions: in vivo
Rattus norvegicus [30] = test: Dose normalized AUC (0 to infinity) in OFA rat at 5 mg/kg, iv; assay type: ADME, organism-based; parameters: dose 5 mg/kg, route intravenous; conditions: in vivo
[31] = Solubility of the compound in fed state simulated intestinal fluid at pH 5.8; assay type: physicochemical
[32] = Intrinsic solubility of the compound at pH 6.8; assay type: physicochemical; conditions: buffer, read-out: Intrinsic_solubility
[33] = Tmax in cynomolgus monkey at 20 mg/kg, po; assay type: ADME, organism-based, Macaca fascicularis; parameters: dose 20 mg/kg, route oral; conditions: in vivo
Mus musculus [34] = test: Dose normalized AUC (0 to infinity) in Balb/c mouse at 5 mg/kg, iv; assay type: ADME, organism-based; parameters: dose 5 mg/kg, route intravenous; conditions: in vivo
Rattus norvegicus [35] = test: Dose normalized AUC (0 to infinity) in OFA rat 20 mg/kg, po; assay type: ADME, organism-based; parameters: dose 20 mg/kg, route oral; conditions: in vivo
[36] = Total plasma clearance in Balb/c mouse at 5 mg/kg, iv; assay type: ADME, organism-based; parameters: dose 5 mg/kg, route intravenous
[37] = Elimination half life in cynomolgus monkey at 5 mg/kg, iv; assay type: ADME, organism-based, Macaca fascicularis; parameters: dose 5 mg/kg, route intravenous; conditions: in vivo, read-out: beta t1/2 (converted)
[38] = Volume of distribution at steady state in cynomolgus monkey at 5 mg/kg, iv; assay type: ADME, organism-based, Macaca fascicularis; parameters: dose 5 mg/kg, route intravenous; conditions: in vivo, read-out: Vdss
[39] = Solubility of the compound in fasted state simulated intestinal fluid at pH 6.5; assay type: physicochemical

Chain of Protein kinase C eta type (P24723 whole entry): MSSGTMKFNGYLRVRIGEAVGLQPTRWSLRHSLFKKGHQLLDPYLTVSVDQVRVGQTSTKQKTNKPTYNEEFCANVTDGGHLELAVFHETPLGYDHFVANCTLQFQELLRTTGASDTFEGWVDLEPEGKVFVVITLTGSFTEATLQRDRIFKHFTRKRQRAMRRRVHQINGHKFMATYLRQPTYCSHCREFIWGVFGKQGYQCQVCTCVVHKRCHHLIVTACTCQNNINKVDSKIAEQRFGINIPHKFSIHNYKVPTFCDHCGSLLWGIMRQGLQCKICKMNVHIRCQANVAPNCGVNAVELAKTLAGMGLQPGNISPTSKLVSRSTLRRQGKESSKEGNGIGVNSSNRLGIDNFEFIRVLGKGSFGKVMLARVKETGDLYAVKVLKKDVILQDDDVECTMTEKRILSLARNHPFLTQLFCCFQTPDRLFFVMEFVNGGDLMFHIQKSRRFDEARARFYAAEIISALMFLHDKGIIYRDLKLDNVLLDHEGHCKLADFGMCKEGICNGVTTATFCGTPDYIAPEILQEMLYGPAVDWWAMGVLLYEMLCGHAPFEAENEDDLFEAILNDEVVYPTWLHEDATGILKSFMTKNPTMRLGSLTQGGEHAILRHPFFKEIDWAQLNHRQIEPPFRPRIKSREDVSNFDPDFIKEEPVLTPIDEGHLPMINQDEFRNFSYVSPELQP
Chain of Protein kinase C beta type (P05771 whole entry): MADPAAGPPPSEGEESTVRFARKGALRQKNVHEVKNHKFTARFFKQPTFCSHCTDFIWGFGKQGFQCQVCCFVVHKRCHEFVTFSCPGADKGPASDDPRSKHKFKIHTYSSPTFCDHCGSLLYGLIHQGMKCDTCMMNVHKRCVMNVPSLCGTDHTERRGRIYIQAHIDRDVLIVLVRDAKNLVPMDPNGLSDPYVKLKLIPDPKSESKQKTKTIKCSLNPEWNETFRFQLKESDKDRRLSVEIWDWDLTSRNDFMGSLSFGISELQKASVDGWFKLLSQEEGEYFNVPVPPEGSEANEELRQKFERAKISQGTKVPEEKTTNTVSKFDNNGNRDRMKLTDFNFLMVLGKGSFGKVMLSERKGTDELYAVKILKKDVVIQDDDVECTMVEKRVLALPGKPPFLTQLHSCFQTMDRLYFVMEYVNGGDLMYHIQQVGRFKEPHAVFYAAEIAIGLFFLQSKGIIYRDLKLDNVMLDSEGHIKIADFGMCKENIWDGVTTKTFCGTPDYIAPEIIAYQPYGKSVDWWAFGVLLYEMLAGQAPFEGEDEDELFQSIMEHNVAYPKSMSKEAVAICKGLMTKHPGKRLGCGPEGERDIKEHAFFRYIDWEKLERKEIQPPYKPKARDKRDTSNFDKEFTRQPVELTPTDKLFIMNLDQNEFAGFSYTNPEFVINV
Chain of Protein kinase C theta type (Q04759 whole entry): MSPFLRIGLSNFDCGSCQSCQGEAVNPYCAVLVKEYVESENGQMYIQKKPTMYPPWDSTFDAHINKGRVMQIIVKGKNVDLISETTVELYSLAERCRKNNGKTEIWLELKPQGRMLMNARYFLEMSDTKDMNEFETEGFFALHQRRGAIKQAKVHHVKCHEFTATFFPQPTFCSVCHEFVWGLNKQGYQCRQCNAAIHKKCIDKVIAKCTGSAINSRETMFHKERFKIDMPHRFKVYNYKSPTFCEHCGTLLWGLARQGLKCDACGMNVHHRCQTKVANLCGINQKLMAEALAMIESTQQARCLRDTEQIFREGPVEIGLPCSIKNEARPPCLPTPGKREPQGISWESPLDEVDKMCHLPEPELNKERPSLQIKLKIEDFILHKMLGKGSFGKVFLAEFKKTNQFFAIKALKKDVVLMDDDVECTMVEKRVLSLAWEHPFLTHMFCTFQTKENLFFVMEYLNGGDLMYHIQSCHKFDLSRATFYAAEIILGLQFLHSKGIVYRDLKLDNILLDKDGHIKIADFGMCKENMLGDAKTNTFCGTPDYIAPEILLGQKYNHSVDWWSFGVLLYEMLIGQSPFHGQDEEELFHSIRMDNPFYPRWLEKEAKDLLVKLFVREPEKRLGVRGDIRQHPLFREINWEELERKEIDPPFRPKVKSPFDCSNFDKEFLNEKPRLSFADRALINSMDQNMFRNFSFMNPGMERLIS
Chain of Protein kinase C delta type (Q05655 whole entry): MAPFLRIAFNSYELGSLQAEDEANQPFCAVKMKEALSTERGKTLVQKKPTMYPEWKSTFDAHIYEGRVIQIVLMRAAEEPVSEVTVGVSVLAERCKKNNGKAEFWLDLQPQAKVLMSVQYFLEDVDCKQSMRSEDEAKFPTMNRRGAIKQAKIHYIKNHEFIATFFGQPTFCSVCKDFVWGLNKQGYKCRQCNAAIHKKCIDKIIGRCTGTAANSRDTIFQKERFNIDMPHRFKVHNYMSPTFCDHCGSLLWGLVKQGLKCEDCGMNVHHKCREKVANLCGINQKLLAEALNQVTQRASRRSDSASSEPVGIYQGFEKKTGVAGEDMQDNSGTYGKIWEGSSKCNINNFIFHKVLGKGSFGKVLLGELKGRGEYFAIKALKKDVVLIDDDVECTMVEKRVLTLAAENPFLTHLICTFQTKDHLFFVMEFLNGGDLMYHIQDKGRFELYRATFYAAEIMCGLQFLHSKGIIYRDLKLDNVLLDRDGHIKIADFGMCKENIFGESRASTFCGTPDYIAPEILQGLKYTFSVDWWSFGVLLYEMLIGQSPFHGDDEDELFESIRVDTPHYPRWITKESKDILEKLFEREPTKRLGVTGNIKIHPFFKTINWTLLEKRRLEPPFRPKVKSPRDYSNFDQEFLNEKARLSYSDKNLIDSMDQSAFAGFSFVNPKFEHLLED
Chain of Cytochrome P450 3A4 (P08684 whole entry): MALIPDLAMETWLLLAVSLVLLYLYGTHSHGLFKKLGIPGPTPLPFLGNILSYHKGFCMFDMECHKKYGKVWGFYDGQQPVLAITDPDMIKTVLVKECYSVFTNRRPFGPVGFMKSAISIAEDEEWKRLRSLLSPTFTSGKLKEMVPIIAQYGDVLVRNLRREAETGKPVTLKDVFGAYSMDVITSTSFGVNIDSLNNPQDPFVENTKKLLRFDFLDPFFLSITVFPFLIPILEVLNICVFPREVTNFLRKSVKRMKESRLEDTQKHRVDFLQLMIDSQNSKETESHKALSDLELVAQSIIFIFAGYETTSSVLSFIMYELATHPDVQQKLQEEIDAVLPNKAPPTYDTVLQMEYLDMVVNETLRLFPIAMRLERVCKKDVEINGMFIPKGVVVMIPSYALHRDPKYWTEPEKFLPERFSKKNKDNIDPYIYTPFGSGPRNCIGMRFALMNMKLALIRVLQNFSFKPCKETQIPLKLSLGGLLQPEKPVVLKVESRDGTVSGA

- IC50 [2]: 72 nM
- IC50 [3]: 3.6 nM
- IC50 [4]: 5.2 nM
- IC50 [5]: 31 nM
- IC50 [6]: 118 nM
- IC50 [7]: 27 nM
- IC50 (Jurkat): 79 nM
SMILES: CN1CCN(c2cc(C3=C(c4c[nH]c5ccccc45)C(=O)NC3=O)c3ccccc3n2)CC1
- IC50 [1]: 575 nM

- IC50 [2]: 4.3 nM
- IC50 [3]: 1.4 nM
- IC50 [4]: 2 nM
- IC50 [5]: 2.1 nM
- IC50 [6]: 6.2 nM
- IC50 [7]: 1.8 nM
- IC50 (Jurkat): 23 nM
SMILES: CN1CCN(c2cc3ccccc3c(C3=C(c4c[nH]c5ccccc45)C(=O)NC3=O)n2)CC1
- IC50 [8]: 37 nM
- IC50 [1]: 73 nM

SMILES: CN1CCN(c2cc(C3=C(c4c[nH]c5ccccc45)C(=O)NC3=O)c3ccccc3c2)CC1
- IC50 [8]: 25 nM
- IC50 [1]: 123 nM

- AUC (Rattus norvegicus [9]): 1952 ng·h/g
- Papp [10]: 4.5 ×10⁻⁶ cm/s
- clearance [11]: 23 mL/min/kg
- bioavailability [12]: 19%
- half-life [13]: 2.5 h
- microsomal CLint [14]: 248 µL/min/mg
- AUC/dose (Cynomolgus monkey [15]): 720 ng·h/mL
- fraction unbound [16]: 0.011
- solubility [17]: 780 µg/mL (≈ 1780 µM)
- fraction unbound [18]: 0.024
- microsomal CLint [19]: 505 µL/min/mg
- microsomal CLint [20]: 433 µL/min/mg
- logP [21]: 2.9
- Tmax [22]: 0.5 h
- bioavailability [23]: 18%
- logD [24]: 2.4
- AUC [25]: 20478 ng·h/g
- Vd [26]: 3.1 L/kg
- AUC/dose (Mus musculus [27]): 72 ng·h/mL
- Ki (Cytochrome P450 3A4): 2900 nM
- AUC (Spleen): 30887 ng·h/g
- AUC/dose (Cynomolgus monkey [28]): 128 ng·h/mL
- AUC (Thymus): 12644 ng·h/g
- fold change (FC) (Mus musculus [29]): 2
- AUC/dose (Rattus norvegicus [30]): 326 ng·h/mL
- solubility [31]: 530 µg/mL (≈ 1210 µM)
- solubility [32]: 19 µg/mL (≈ 43.3 µM)
- Tmax [33]: 8 h
- AUC/dose (Mus musculus [34]): 371 ng·h/mL
- AUC/dose (Rattus norvegicus [35]): 110 ng·h/mL
- clearance [36]: 45 mL/min/kg
- half-life [37]: 4.8 h
- Vd [38]: 5.9 L/kg
- solubility [39]: 410 µg/mL (≈ 935 µM)
SMILES: CN1CCN(c2nc(C3=C(c4c[nH]c5ccccc45)C(=O)NC3=O)c3ccccc3n2)CC1 [SOTRASTAURIN]
- IC50 [8]: 37 nM
- IC50 [1]: 150 nM
